Assay results as given in ChEMBL document CHEMBL1201862, “PubChem BioAssay data set” (2004).
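How tested: cells in 96-well plates exposed to compound for 48 hours at five concentrations. GI50 marks 50% less growth.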 Calls of active or inactive are those of the source. No stated cut-off is given here; in the data, active = GI50 up to about 1.1 µM and inactive = higher.

Key:
Experiment in all cases: growth of human tumour cells (NCI), 48 h
[1] = test system: BT-549
[2] = test system: TK-10
[3] = test system: SF-295
[4] = test system: K562
[5] = test system: EKVX
[6] = test system: HT-29
[7] = test system: T47D
[8] = test system: MDA-MB-435
[9] = test system: OVCAR-8
[10] = test system: A549
[11] = test system: PC-3
[12] = test system: DU-145
[13] = test system: MCF7
[14] = test system: HOP-62
[15] = test system: SF-268
[16] = test system: UO-31
[17] = test system: HCT-116
[18] = test system: SNB-75
[19] = test system: OVCAR-4
[20] = test system: UACC-257
[21] = test system: SK-MEL-2
[22] = test system: 786-0
[23] = test system: COLO 205
[24] = test system: Hs-578T
[25] = test system: NCI-H23
[26] = test system: LOX IMVI
[27] = test system: UACC-62
[28] = test system: CCRF-CEM
[29] = test system: CAKI-1
[30] = test system: IGROV-1
[31] = test system: NCI-H522
[32] = test system: RXF 393
[33] = test system: SN12C
[34] = test system: MOLT-4
[35] = test system: SK-MEL-5
[36] = test system: HCC 2998
[37] = test system: HOP-92
[38] = test system: OVCAR-5
[39] = test system: ACHN
[40] = test system: A498
[41] = test system: SK-OV-3
[42] = test system: HCT-15
[43] = test system: SNB-19
[44] = test system: NCI-H226
[45] = test system: RPMI-8226
[46] = test system: SW-620
[47] = test system: SR
[48] = test system: OVCAR-3
[49] = test system: MDA-MB-231
[50] = test system: KM12
[51] = test system: NCI/ADR-RES
[52] = test system: SK-MEL-28
[53] = test system: SF-539
[54] = test system: M14
[55] = test system: U-251

C/C(C=O)=N\Nc1cc(C)c2ccccc2n1
GI50 [1]: 12.8 µM (inactive)
GI50 [2]: 15.5 µM (inactive)
GI50 [3]: 15.2 µM (inactive)
GI50 [4]: 13.4 µM (inactive)
GI50 [5]: 16.9 µM (inactive)
GI50 [6]: 16.7 µM (inactive)
GI50 [7]: 15.8 µM (inactive)
GI50 [8]: 16 µM (inactive)
GI50 [9]: 17.5 µM (inactive)
GI50 [10]: 20.6 µM (inactive)
GI50 [11]: 13.7 µM (inactive)
GI50 [12]: 15.5 µM (inactive)
GI50 [13]: 12.5 µM (inactive)
GI50 [14]: 11.2 µM (inactive)
GI50 [15]: 16.9 µM (inactive)
GI50 [16]: 14.9 µM (inactive)
GI50 [17]: 14.5 µM (inactive)
GI50 [18]: 15.1 µM (inactive)
GI50 [19]: 12.8 µM (inactive)
GI50 [20]: 17.6 µM (inactive)
GI50 [21]: 15.2 µM (inactive)
GI50 [22]: 14.2 µM (inactive)
GI50 [23]: 16.4 µM (inactive)
GI50 [24]: 17.3 µM (inactive)
GI50 [25]: 12.4 µM (inactive)
GI50 [26]: 13.2 µM (inactive)
GI50 [27]: 14.7 µM (inactive)
GI50 [28]: 12 µM (inactive)
GI50 [29]: 16.9 µM (inactive)
GI50 [30]: 16.9 µM (inactive)
GI50 [31]: 17.1 µM (inactive)
GI50 [32]: 17.5 µM (inactive)
GI50 [33]: 16.3 µM (inactive)
GI50 [34]: 16.2 µM (inactive)
GI50 [35]: 15.6 µM (inactive)
GI50 [36]: 15.1 µM (inactive)
GI50 [37]: 15.1 µM (inactive)
GI50 [38]: 17.2 µM (inactive)
GI50 [39]: 16.3 µM (inactive)
GI50 [40]: 15.2 µM (inactive)
GI50 [41]: 20.9 µM (inactive)
GI50 [42]: 10 µM
GI50 [43]: 19.1 µM (inactive)
GI50 [44]: 6.52 µM (inactive)
GI50 [45]: 11.9 µM (inactive)
GI50 [46]: 24.7 µM (inactive)
GI50 [47]: 1.7 µM (inactive)
GI50 [48]: 2.62 µM (inactive)
GI50 [49]: 15.1 µM (inactive)
GI50 [50]: 15 µM (inactive)
GI50 [51]: 15.7 µM (inactive)
GI50 [52]: 16.3 µM (inactive)
GI50 [53]: 11.7 µM (inactive)
GI50 [54]: 15.7 µM (inactive)
GI50 [55]: 14 µM (inactive)
